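Following 48 hours of exposure in 96-well plates, responses at five concentrations were used to interpolate endpoints linearly. GI50 is the concentration that inhibits growth by half.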 Calls of active or inactive are those of the source. Rule as the data show it: active = GI50 up to about 1.1 µM and inactive = higher.
Tests used:
Assay in all cases: inhibition of tumour cell growth, NCI panel, 48 h
IGROV-1 = test system: IGROV-1
MDA-MB-435 = test system: MDA-MB-435
SF-268 = test system: SF-268
OVCAR-4 = test system: OVCAR-4
Hs-578T = test system: Hs-578T
BT-549 = test system: BT-549
MDA-MB-231 = test system: MDA-MB-231
HOP-62 = test system: HOP-62
KM12 = test system: KM12
HCC 2998 = test system: HCC 2998
RPMI-8226 = test system: RPMI-8226
SNB-75 = test system: SNB-75
T47D = test system: T47D
786-0 = test system: 786-0
OVCAR-8 = test system: OVCAR-8
EKVX = test system: EKVX
UACC-257 = test system: UACC-257
LOX IMVI = test system: LOX IMVI
SW-620 = test system: SW-620
NCI-H23 = test system: NCI-H23

Row | Compound | GI50 (IGROV-1) | GI50 (MDA-MB-435) | GI50 (SF-268) | GI50 (OVCAR-4) | GI50 (Hs-578T) | GI50 (BT-549) | GI50 (MDA-MB-231) | GI50 (HOP-62) | GI50 (KM12) | GI50 (HCC 2998) | GI50 (RPMI-8226) | GI50 (SNB-75) | GI50 (T47D) | GI50 (786-0) | GI50 (OVCAR-8) | GI50 (EKVX) | GI50 (UACC-257) | GI50 (LOX IMVI) | GI50 (SW-620) | GI50 (NCI-H23)
1 | O=C1Nc2ccccc2/C1=N/NC(=S)NCc1ccccn1 | 0.0721 µM (active) | 0.931 µM (active) | 0.136 µM (active) | 1.33 µM (inactive) | 6.14 µM (inactive) | 1.09 µM (active) | 0.0721 µM (active) | 0.483 µM (active) | 0.698 µM (active) | 0.975 µM (active) | < 0.01 µM (active) | 0.454 µM (active) | 0.0343 µM (active) | 0.355 µM (active) | 0.346 µM (active) | 0.294 µM (active) | 0.47 µM (active) | 0.371 µM (active) | 0.126 µM (active) | 0.533 µM (active)
2 | COc1ccc2c(c1OC(C)=O)C1=CC(=O)CCC13CCNC3C2 (stereo not given) | > 100 µM (inactive) | > 100 µM (inactive) | > 100 µM (inactive) | > 100 µM (inactive) | > 100 µM (inactive) | > 100 µM (inactive) | > 100 µM (inactive) | > 100 µM (inactive) | > 100 µM (inactive) | > 100 µM (inactive) | > 100 µM (inactive) | > 100 µM (inactive) | > 100 µM (inactive) | > 100 µM (inactive) | > 100 µM (inactive) | > 100 µM (inactive) | > 100 µM (inactive) | > 100 µM (inactive) | > 100 µM (inactive) | > 100 µM (inactive)
3 | NC(=O)c1ncn(C2OC(CO)C(O)C2O)c1NC=O (stereo not given) | > 100 µM (inactive) | > 100 µM (inactive) | > 100 µM (inactive) | > 100 µM (inactive) | > 100 µM (inactive) | > 100 µM (inactive) | > 100 µM (inactive) | > 100 µM (inactive) | > 100 µM (inactive) | > 100 µM (inactive) | > 100 µM (inactive) | > 100 µM (inactive) | > 100 µM (inactive) | > 100 µM (inactive) | > 100 µM (inactive) | > 100 µM (inactive) | > 100 µM (inactive) | > 100 µM (inactive) | > 100 µM (inactive) | > 100 µM (inactive)
4 | C[N+](C)(C)C(Cc1c[nH]c(=S)[nH]1)C(=O)O (stereo not given) | > 100 µM (inactive) | > 100 µM (inactive) | > 100 µM (inactive) | > 100 µM (inactive) | > 100 µM (inactive) | > 100 µM (inactive) | > 100 µM (inactive) | > 100 µM (inactive) | > 100 µM (inactive) | > 100 µM (inactive) | > 100 µM (inactive) | > 100 µM (inactive) | > 100 µM (inactive) | > 100 µM (inactive) | > 100 µM (inactive) | > 100 µM (inactive) | > 100 µM (inactive) | > 100 µM (inactive) | > 100 µM (inactive) | > 100 µM (inactive)
5 | O=C(O)C(F)(OC(F)(F)C(F)(F)C(F)(F)F)C(F)(F)F (stereo not given) | > 100 µM (inactive) | > 100 µM (inactive) | > 100 µM (inactive) | > 100 µM (inactive) | > 100 µM (inactive) | > 100 µM (inactive) | > 100 µM (inactive) | > 100 µM (inactive) | > 100 µM (inactive) | > 100 µM (inactive) | > 100 µM (inactive) | > 100 µM (inactive) | > 100 µM (inactive) | > 100 µM (inactive) | > 100 µM (inactive) | > 100 µM (inactive) | > 100 µM (inactive) | > 100 µM (inactive) | > 100 µM (inactive) | > 100 µM (inactive)
6 | O=[N+]([O-])c1ccc(C(Nc2ccccc2)c2ccc3cccnc3c2O)cc1 (stereo not given) | 10.6 µM (inactive) | 14.4 µM (inactive) | 4.46 µM (inactive) | 5.69 µM (inactive) | 19.6 µM (inactive) | 10.3 µM (inactive) | 16.2 µM (inactive) | 7.48 µM (inactive) | 7.94 µM (inactive) | 12.9 µM (inactive) | 5.13 µM (inactive) | 6.67 µM (inactive) | 5.25 µM (inactive) | 4.37 µM (inactive) | 3.85 µM (inactive) | 6.04 µM (inactive) | 13.8 µM (inactive) | 6.5 µM (inactive) | 6.27 µM (inactive) | 11.5 µM (inactive)
7 | CCCCCCCCCCCCOP(=O)(O)OP(=O)(O)OCC1OC(n2ccc(N)nc2=O)CC1O (stereo not given) | > 100 µM (inactive) | > 100 µM (inactive) | > 100 µM (inactive) | > 100 µM (inactive) | > 100 µM (inactive) | > 100 µM (inactive) | > 100 µM (inactive) | > 100 µM (inactive) | > 100 µM (inactive) | > 100 µM (inactive) | > 100 µM (inactive) | 95.9 µM (inactive) | 38.3 µM (inactive) | > 100 µM (inactive) | > 100 µM (inactive) | > 100 µM (inactive) | > 100 µM (inactive) | > 100 µM (inactive) | > 100 µM (inactive) | > 100 µM (inactive)
